Data: BindingDB's records for patent US20240368150 (Hoffmann-La Roche, 2024)

Legend:
[1] = molecular target: Diacylglycerol kinase zeta (Homo sapiens, UniProt Q13574)
[2] = molecular target: Diacylglycerol kinase alpha (Homo sapiens, UniProt P23743); experiment: In Vitro DGK Inhibition Assays
Protocol: DGK α and ζ kinase use ATP to phosphorylate the substrate 1,2-dilauroyl-sn-glycerol (DLG, incorporated in the liposomes). ATP is converted to ADP as a result of this enzymatic reaction. After the kinase reaction, an ATP-depletion reagent is added to terminate the kinase reaction and deplete any remaining ATP, leaving only ADP. Second, a detection reagent is added to simultaneously convert ADP to ATP and allow the newly synthesized ATP to be converted to light using a coupled luciferase/luciferin reaction. A concentrated liposome solution was prepared in assay buffer without DTT and BSA: 2 mM of DLG in 21 mM of total liposome (2 mM DLG/8 mM PS/11 mM PC). […] The reactions were started by addition of DGK α and ζ kinases at 4 nM and 2 nM final concentrations, respectively. After 1 hour reaction, the amount of ADP formed was detected with the ADP-Glo kinase assay (Promega) according to the manufacturer instructions. Compounds were added in 11-points dose response, starting at […], 1:3 dilutions, with a final DMSO concentration of 2%. The multidrop combi was used as a liquid handler and luminescence was read with 0.5 s by the envision reader (PE).

Sequence of Diacylglycerol kinase alpha (P23743 whole entry): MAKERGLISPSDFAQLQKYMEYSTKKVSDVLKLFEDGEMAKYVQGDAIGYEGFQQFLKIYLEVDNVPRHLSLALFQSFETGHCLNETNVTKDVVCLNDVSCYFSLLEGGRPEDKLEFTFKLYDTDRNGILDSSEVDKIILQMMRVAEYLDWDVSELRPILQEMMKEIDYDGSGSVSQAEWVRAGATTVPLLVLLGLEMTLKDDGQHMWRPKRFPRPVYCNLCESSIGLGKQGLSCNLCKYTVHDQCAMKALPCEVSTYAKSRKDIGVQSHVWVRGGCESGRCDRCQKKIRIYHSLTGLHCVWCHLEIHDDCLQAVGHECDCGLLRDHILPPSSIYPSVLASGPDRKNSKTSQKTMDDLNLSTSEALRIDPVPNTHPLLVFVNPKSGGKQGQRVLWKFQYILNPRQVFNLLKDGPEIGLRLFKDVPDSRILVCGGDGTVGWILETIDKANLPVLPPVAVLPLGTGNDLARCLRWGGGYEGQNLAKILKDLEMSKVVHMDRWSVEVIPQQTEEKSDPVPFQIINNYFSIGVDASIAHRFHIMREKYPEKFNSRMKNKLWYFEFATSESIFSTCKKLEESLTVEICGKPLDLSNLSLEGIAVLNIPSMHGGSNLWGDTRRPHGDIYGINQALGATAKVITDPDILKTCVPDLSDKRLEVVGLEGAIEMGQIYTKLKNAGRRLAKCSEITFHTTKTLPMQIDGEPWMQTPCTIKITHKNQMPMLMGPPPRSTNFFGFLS
Sequence of Diacylglycerol kinase zeta (Q13574 as listed by the source): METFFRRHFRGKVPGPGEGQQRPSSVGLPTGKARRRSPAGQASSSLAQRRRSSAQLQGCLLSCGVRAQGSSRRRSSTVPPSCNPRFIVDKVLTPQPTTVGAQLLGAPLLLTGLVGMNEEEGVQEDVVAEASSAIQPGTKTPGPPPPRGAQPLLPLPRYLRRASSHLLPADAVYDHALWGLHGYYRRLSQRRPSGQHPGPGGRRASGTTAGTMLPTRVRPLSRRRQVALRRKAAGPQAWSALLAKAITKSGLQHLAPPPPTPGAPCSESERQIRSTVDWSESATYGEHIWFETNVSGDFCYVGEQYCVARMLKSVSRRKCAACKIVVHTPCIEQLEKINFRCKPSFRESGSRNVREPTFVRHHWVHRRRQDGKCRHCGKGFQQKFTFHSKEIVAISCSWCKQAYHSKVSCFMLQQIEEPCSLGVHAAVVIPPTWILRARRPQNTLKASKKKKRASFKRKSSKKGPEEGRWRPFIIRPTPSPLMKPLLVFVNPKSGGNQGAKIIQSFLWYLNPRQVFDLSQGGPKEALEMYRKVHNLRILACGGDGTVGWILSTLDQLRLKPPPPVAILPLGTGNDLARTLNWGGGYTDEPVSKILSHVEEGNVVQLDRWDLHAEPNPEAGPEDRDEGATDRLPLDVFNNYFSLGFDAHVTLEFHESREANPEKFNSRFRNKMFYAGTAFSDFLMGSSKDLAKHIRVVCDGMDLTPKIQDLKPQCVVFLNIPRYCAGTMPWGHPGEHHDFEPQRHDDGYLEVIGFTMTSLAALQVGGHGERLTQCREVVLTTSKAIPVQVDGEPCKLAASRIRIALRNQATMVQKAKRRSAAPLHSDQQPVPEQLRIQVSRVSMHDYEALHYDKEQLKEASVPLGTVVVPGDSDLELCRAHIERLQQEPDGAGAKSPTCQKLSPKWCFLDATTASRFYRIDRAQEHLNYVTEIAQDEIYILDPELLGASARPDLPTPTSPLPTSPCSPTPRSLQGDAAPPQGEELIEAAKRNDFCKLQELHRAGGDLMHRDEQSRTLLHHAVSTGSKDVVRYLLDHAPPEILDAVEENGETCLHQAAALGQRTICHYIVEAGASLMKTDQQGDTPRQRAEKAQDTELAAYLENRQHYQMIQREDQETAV

Row | Compound | IC50 [1] | IC50 [2]
1 | CN(C)C(=O)c1nnc(-c2cc3c(cc2F)S(=O)(=O)C[C@H](N)C(=O)N3Cc2ccc(Cl)cc2)o1 [US20240368150, Example 87] | 3.67 µM | 3.06 µM
2 | COC1(c2nnc(-c3ccc4c(c3)N(Cc3ccc(Cl)cc3)C(=O)[C@@H](N)CS4(=O)=O)o2)CCC(F)(F)CC1 [US20240368150, Example 378] | 1.44 µM | 4.06 µM
